# Test results from patent publication US20240107999A1, “ANTIBACTERIAL COMPOSITION” (LG CHEM, LTD., priority 2021, published 2024).
# What was measured:
# P. mirabilis (ATCC29906) [1] = assay: Antibacterial strength (bacteriostatic reduction rate) by Methods 1 to 4, broth culture absorbance at 600 nm; type: cell-based; settings: Proteus mirabilis, 16 hours, 35° C.; for inhibition of growth at 200 µg/mL: amount of antibacterial composition added 0.005 g in 25 ml broth, 3,000 CFU/ml, read-out: Antibacterial strength (%) Method 2; for inhibition of growth at 400 µg/mL: amount of antibacterial composition added 0.01 g in 25 ml broth, 3,000 CFU/ml, read-out: Antibacterial strength (%) Method 4; for inhibition of growth at 600 µg/mL: amount of antibacterial composition added 0.015 g in 25 ml broth, 3,000 CFU/ml, read-out: Antibacterial strength (%) Method 1; for inhibition of growth at 800 µg/mL: amount of antibacterial composition added 0.02 g in 25 ml broth, 3,000 CFU/ml, read-out: Antibacterial strength (%) Method 3
# Experimental: (§1) After 25 ml of a broth-type medium (Nutrient broth, BD DIFCO., 8 g/L) inoculated with 3,000 CFU/ml bacteria is put into a 50 mL conical tube, 0.015 g of the antibacterial composition is added thereto and suspended (by vortexing), a sufficiently mixed solution is incubated for 16 hours in a shaking water bath maintained at 35° C.
# (§2) After the incubated solution was diluted to ⅕ using a 1×PBS buffer solution, absorbance (λ=600 nm) was measured using a UV/Vis spectrophotometer, and the antibacterial strength, which is a bacteriostatic reduction rate, is calculated by the following equation by comparing the measured absorbance with a solution incubated without the addition of the antibacterial composition.
# (§3) Antibacterial strength(%)=(1−Asample/AReference)×100 • Asample=Absorbance of medium solution incubated by adding antibacterial composition • AReference=Absorbance of medium solution incubated without addition of antibacterial composition
# (§4) This method is the same as Method 1, except that 0.005 g of the antibacterial composition is added instead of 0.015 g of the antibacterial composition.
# (§5) This method is the same as Method 1, except that 0.02 g of the antibacterial composition is added instead of 0.015 g of the antibacterial composition.
# (§6) This method is the same as Method 1, except that 0.01 g of the antibacterial composition is added instead of 0.015 g of the antibacterial composition.
# The antibacterial strength of Monomers 1 to 10 and Comparative Monomers 1 and 2 by Methods 1 to 4 was measured, and is shown in the following Table 1. In this case, the P. mirabilis (ATCC29906) bacteria were used.
# P. mirabilis (ATCC29906) [2] = assay: Time at which 99.9% of the antibacterial strength is confirmed (Methods 1 to 4); type: cell-based, Proteus mirabilis; settings: for Time at which 99.9% of the antibacterial strength is confirmed, Method 2: amount of antibacterial composition added 0.005 g; for Time at which 99.9% of the antibacterial strength is confirmed, Method 4: amount of antibacterial composition added 0.01 g; for Time at which 99.9% of the antibacterial strength is confirmed, Method 1: amount of antibacterial composition added 0.015 g; for Time at which 99.9% of the antibacterial strength is confirmed, Method 3: amount of antibacterial composition added 0.02 g
# Experimental: as §1, §2, §3, §4, §5, §6
# The time at which 99.9% of the antibacterial strength of Monomers 1 to 10 and Comparative Monomers 1 and 2 is confirmed is shown in the following Table 2.
# [3] = Acute oral toxicity dose LD50 by 3T3 Neutral Red Uptake (NRU) assay (OECD Guidance Document No 129); type: cell-based; settings: mouse, 3T3 cells, po, calculated from 3T3 NRU assay
# Experimental: (§7) The acute oral toxicity dose LD50 and acute percutaneous toxicity dose LD50 were measured by 3T3 Neutral Red Uptake (NRU) assay (OECD Guidance Document No 129). Specifically, the acute oral toxicity dose LD50 and acute percutaneous toxicity dose LD50 can be calculated by the following method: […]
# 3T3 = assay: as above; type: cell-based; settings: calculated from 3T3 NRU assay
# Experimental: as §7
# [4] = Acute percutaneous toxicity dose LD50 by 3T3 Neutral Red Uptake (NRU) assay (OECD Guidance Document No 129); type: cell-based; settings: mouse, 3T3 cells, other: percutaneous, calculated from 3T3 NRU assay
# Experimental: as §7
SMILES,inhibition of growth at 200 µg/mL (P. mirabilis (ATCC29906) [1]) [%],inhibition of growth at 400 µg/mL (P. mirabilis (ATCC29906) [1]) [%],inhibition of growth at 600 µg/mL (P. mirabilis (ATCC29906) [1]) [%],inhibition of growth at 800 µg/mL (P. mirabilis (ATCC29906) [1]) [%],"Time at which 99.9% of the antibacterial strength is confirmed, Method 2 (P. mirabilis (ATCC29906) [2])","Time at which 99.9% of the antibacterial strength is confirmed, Method 4 (P. mirabilis (ATCC29906) [2])","Time at which 99.9% of the antibacterial strength is confirmed, Method 1 (P. mirabilis (ATCC29906) [2])","Time at which 99.9% of the antibacterial strength is confirmed, Method 3 (P. mirabilis (ATCC29906) [2])",LD50 [3] [mg/kg],Acute oral toxicity dose (mg/Kg) LD50 (3T3),LD50 [4] [mg/kg]
C=C(C)C(=O)OCC[N+](CCCCCC)(CCCCCC)CCCCCCCCCC [Monomer 5],99.9,99.9,99.9,99.9,Within 1 hour,Within 1 hour,Within 1 hour,Within 1 hour,≥ 1000,"1,078 mg/Kg",≥ 2000
C=C(C)C(=O)OCC[N+](CCCC)(CCCCCC)CCCCCCCCCC (centres unmarked) [Monomer 6],99.9,99.9,99.9,99.9,Within 1 hour,Within 1 hour,Within 1 hour,Within 1 hour,≥ 1000,"1,111 mg/Kg",≥ 2000
C=C(C)C(=O)OCC[N+](CCCC)(CCCCCCCC)CCCCCCCCCC (centres unmarked) [Monomer 7],99.9,99.9,99.9,99.9,Within 1 hour,Within 1 hour,Within 1 hour,Within 1 hour,998,,≥ 2000
C=C(C)C(=O)OCC[N+](CCCC)(CCCCCCCCCC)CCCCCCCCCC [Monomer 8],99.9,99.9,99.9,99.9,Within 1 hour,Within 1 hour,Within 1 hour,Within 1 hour,869,,≥ 2000
C=CC(=O)OCCCC[N+](CCCC)(CCCC)CCCCCCCC [Monomer 9],61.2,70,99.9,99.9,,,Within 1 hour,Within 1 hour,≥ 1000,"1,498 mg/Kg",≥ 2000
C=CC(=O)OCCCC[N+](CCCCCCCC)(CCCCCCCC)CCCCCCCC [Monomer 10],99.9,99.9,99.9,99.9,Within 1 hour,Within 1 hour,Within 1 hour,Within 1 hour,≥ 1000,"1,242 mg/Kg",≥ 2000
